Measured values: patent US11866430B2, “Naphthyridinone compounds useful as T cell activators” (priority 2018, dated 2024)

Columns and labels:
human DGKα = human DGKα (Homo sapiens (Human), UniProt P23743); experiment: biochemical; conditions: detergent/lipid micelle substrate; read-out: DGKα IC50
Outline: (§1)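 Enzymes were baculovirus/Sf9 full-length human DGKα or DGKζ with His tag. The substrate was PS/DAG in octyl glucoside micelles, in MOPS pH 7.5 buffer with NaCl, MgCl2, CaCl2 and DTT.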

[1] = tested on: pre-activated CD4 T cells and Raji cells; experiment: Raji CD4 T Cell IL2 Assay; type: cell-based; conditions: Homo sapiens, Raji
human DGKζ = human DGKζ (Homo sapiens (Human), UniProt Q13574); experiment: DGKζ assay (detergent/lipid micelle substrate); type: biochemical; conditions: detergent/lipid micelle substrate; read-out: DGKζ IC50
Outline: as §1

Chain of human DGKζ (Q13574 other isoform, or with tags, fused parts or gaps): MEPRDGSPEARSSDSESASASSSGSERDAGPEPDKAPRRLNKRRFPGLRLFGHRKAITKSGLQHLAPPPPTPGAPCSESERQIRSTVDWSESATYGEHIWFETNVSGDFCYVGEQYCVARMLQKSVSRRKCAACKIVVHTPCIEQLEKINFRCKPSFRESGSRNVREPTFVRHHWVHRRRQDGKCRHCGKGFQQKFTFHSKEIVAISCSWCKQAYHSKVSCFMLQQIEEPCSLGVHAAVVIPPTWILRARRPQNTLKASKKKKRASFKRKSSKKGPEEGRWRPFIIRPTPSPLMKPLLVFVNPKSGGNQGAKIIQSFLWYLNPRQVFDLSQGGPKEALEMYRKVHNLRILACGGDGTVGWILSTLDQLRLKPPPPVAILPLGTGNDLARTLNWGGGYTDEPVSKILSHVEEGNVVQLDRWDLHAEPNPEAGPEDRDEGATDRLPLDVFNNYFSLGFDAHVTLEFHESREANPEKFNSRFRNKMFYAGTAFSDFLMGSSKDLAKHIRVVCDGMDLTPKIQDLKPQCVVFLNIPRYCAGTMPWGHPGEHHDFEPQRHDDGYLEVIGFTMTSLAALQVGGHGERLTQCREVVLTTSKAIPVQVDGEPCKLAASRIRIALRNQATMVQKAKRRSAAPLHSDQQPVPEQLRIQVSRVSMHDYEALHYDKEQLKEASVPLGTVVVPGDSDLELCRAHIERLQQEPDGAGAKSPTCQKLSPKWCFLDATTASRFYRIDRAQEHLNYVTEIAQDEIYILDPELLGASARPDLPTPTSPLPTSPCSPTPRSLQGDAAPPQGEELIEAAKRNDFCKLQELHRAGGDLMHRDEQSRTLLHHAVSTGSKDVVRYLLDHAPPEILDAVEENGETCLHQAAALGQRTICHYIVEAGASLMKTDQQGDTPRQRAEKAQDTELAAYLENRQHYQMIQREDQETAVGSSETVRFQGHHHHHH
Chain of human DGKα (P23743 other isoform, or with tags, fused parts or gaps): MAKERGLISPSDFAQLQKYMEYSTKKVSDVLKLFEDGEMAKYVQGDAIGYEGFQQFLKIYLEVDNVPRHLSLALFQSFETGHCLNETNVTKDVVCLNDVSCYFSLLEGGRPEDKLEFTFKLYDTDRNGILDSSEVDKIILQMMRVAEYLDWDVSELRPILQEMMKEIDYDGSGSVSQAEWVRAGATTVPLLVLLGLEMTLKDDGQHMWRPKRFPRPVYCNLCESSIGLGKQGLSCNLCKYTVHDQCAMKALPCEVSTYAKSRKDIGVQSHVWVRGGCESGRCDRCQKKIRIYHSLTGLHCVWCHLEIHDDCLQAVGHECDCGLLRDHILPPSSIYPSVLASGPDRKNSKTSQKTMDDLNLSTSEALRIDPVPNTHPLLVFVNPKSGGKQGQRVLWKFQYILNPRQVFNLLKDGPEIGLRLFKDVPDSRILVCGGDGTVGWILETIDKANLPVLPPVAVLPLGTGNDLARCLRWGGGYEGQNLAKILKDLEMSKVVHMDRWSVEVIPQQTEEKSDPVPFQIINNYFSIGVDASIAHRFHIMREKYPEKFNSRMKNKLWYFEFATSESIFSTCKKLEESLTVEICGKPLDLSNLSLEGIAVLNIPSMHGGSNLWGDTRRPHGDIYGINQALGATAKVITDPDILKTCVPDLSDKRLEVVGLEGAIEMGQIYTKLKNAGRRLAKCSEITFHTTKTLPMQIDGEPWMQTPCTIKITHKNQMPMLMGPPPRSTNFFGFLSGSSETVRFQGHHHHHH

Compound | IC50 (human DGKα) | IC50 [1] | IC50 (human DGKζ)
Cn1c(=O)c(C#N)c(N2CCN(Cc3ccc(F)c(F)c3)CC2)c2nc(Cl)ccc21 [Example 319, 6-chloro-4-{4-[(3,4-difluorophenyl)methyl]piperazin-1-yl}-1-methyl-2-oxo-1,2-dihydro-1,5-naphthyridine-3-carbonitrile] | 550 nM | 300 nM | 220000 nM
Cn1c(=O)c(C#N)c(N2CCN(Cc3cc(F)cc(F)c3O)CC2)c2nc(Br)ccc21 [Example 320, 6-bromo-4-{4-[(3,5-difluoro-2-hydroxyphenyl)methyl]piperazin-1-yl}-1-methyl-2-oxo-1,2-dihydro-1,5-naphthyridine-3-carbonitrile] | 890 nM | 300 nM | > 240000 nM
Cn1c(=O)c(C#N)c(N2CCN(Cc3cccc4cn[nH]c34)CC2)c2nc(Cl)ccc21 [Example 322, 6-chloro-4-{4-[(1H-indazol-7-yl)methyl]piperazin-1-yl}-1-methyl-2-oxo-1,2-dihydro-1,5-naphthyridine-3-carbonitrile] | 2800 nM | 320 nM | > 240000 nM
Cn1c(=O)c(C#N)c(N2CCN(Cc3cc(F)cc(Cl)c3)CC2)c2nc(Cl)ccc21 [Example 324, 6-chloro-4-{4-[(3-chloro-5-fluorophenyl)methyl]piperazin-1-yl}-1-methyl-2-oxo-1,2-dihydro-1,5-naphthyridine-3-carbonitrile] | 190 nM | 350 nM | > 240000 nM
Cn1c(=O)c(C#N)c(N2CCN(Cc3ccc(Cl)c(F)c3)CC2)c2nc(Cl)ccc21 [Example 326, 6-chloro-4-{4-[(4-chloro-3-fluorophenyl)methyl]piperazin-1-yl}-1-methyl-2-oxo-1,2-dihydro-1,5-naphthyridine-3-carbonitrile] | 1900 nM | 380 nM | > 240000 nM
COc1cccc(CN2CCN(c3c(C#N)c(=O)n(C)c4ccc(Cl)nc34)CC2)c1 [Example 327, 6-chloro-4-{4-[(3-methoxyphenyl)methyl]piperazin-1-yl}-1-methyl-2-oxo-1,2-dihydro-1,5-naphthyridine-3-carbonitrile] | 660 nM | 430 nM | 140000 nM
Cc1ccc(CN2CCN(c3c(C#N)c(=O)n(C)c4ccc(Cl)nc34)CC2)cc1O [Example 328, 6-chloro-4-{4-[(3-hydroxy-4-methylphenyl)methyl]piperazin-1-yl}-1-methyl-2-oxo-1,2-dihydro-1,5-naphthyridine-3-carbonitrile] | 1000 nM | 440 nM | 120000 nM
Cn1c(=O)c(C#N)c(N2CCN(Cc3cccc(F)c3F)CC2)c2nc(Cl)ccc21 [Example 330, 6-chloro-4-{4-[(2,3-difluorophenyl)methyl]piperazin-1-yl}-1-methyl-2-oxo-1,2-dihydro-1,5-naphthyridine-3-carbonitrile] | 3700 nM | 500 nM | > 240000 nM
COc1ccccc1CN1CCN(c2c(C#N)c(=O)n(C)c3ccc(Cl)nc23)CC1 [Example 331, 6-chloro-4-{4-[(2-methoxyphenyl)methyl]piperazin-1-yl}-1-methyl-2-oxo-1,2-dihydro-1,5-naphthyridine-3-carbonitrile] | 490 nM | 520 nM | > 240000 nM
Cn1c(=O)c(C#N)c(N2CCN(Cc3cccc4cn[nH]c34)CC2)c2nc(Br)ccc21 [Example 333, 6-bromo-4-{4-[(1H-indazol-7-yl)methyl]piperazin-1-yl}-1-methyl-2-oxo-1,2-dihydro-1,5-naphthyridine-3-carbonitrile] | 5000 nM | 540 nM | 230000 nM
Cc1ccc2c(n1)c(N1CCN(Cc3ccccc3O)CC1)c(C#N)c(=O)n2C [Example 337, 4-{4-[(2-hydroxyphenyl)methyl]piperazin-1-yl}-1,6-dimethyl-2-oxo-1,2-dihydro-1,5-naphthyridine-3-carbonitrile] | 65 nM | 550 nM | > 81000 nM
Cn1c(=O)c(C#N)c(N2CCN(Cc3ccccc3F)CC2)c2nc(Cl)ccc21 [Example 339, 6-chloro-4-{4-[(2-fluorophenyl)methyl]piperazin-1-yl}-1-methyl-2-oxo-1,2-dihydro-1,5-naphthyridine-3-carbonitrile] | 570 nM | 650 nM | > 240000 nM
COc1ccc(CN2CCN(c3c(C#N)c(=O)n(C)c4ccc(Cl)nc34)CC2)cc1 [Example 341, 6-chloro-4-{4-[(4-methoxyphenyl)methyl]piperazin-1-yl}-1-methyl-2-oxo-1,2-dihydro-1,5-naphthyridine-3-carbonitrile] | 320 nM | 730 nM | > 240000 nM
Cn1c(=O)c([N+](=O)[O-])c(N2CCN(C3(c4ccc(F)cc4)CC3)CC2)c2nc(C#N)ccc21 [Example 342, 8-{4-[1-(4-fluorophenyl)cyclopropyl]piperazin-1-yl}-5-methyl-7-nitro-6-oxo-5,6-dihydro-1,5-naphthyridine-2-carbonitrile] | 28000 nM | 790 nM | > 240000 nM
Cn1c(=O)c(C#N)c(N2CCN(Cc3ccccc3)CC2)c2nc(Cl)ccc21 [Example 343, 4-(4-benzylpiperazin-1-yl)-6-chloro-1-methyl-2-oxo-1,2-dihydro-1,5-naphthyridine-3-carbonitrile] | 68 nM | 810 nM | > 81000 nM
Cn1c(=O)c(C#N)c(N2CCN(Cc3ccccc3F)CC2)c2nc(Br)ccc21 [Example 344, 6-bromo-4-{4-[(2-fluorophenyl)methyl]piperazin-1-yl}-1-methyl-2-oxo-1,2-dihydro-1,5-naphthyridine-3-carbonitrile] | 400 nM | 820 nM | > 240000 nM
Cn1c(=O)c(C#N)c(N2CCN(Cc3cc(O)cc(Cl)c3)CC2)c2nc(Cl)ccc21 [Example 345, 6-chloro-4-{4-[(3-chloro-5-hydroxyphenyl)methyl]piperazin-1-yl}-1-methyl-2-oxo-1,2-dihydro-1,5-naphthyridine-3-carbonitrile] | 4600 nM | 990 nM | > 240000 nM
Cc1ccccc1CN1CCN(c2c(C#N)c(=O)n(C)c3ccc(Cl)nc23)CC1 [Example 346, 6-chloro-1-methyl-4-{4-[(2-methylphenyl)methyl]piperazin-1-yl}-2-oxo-1,2-dihydro-1,5-naphthyridine-3-carbonitrile] | 5300 nM | 1100 nM | > 240000 nM
Cn1c(=O)c(C#N)c(N2CCN(Cc3ccc(F)c(O)c3)CC2)c2nc(Cl)ccc21 [Example 348, 6-chloro-4-{4-[(4-fluoro-3-hydroxyphenyl)methyl]piperazin-1-yl}-1-methyl-2-oxo-1,2-dihydro-1,5-naphthyridine-3-carbonitrile] | 220 nM | 1300 nM | 140000 nM
Cn1c(=O)c(C#N)c(N2CCN(Cc3ccc(F)cc3F)CC2)c2nc(Cl)ccc21 [Example 350, 6-chloro-4-{4-[(2,4-difluorophenyl)methyl]piperazin-1-yl}-1-methyl-2-oxo-1,2-dihydro-1,5-naphthyridine-3-carbonitrile] | 1200 nM | 1500 nM | > 81000 nM
Cn1c(=O)c(C#N)c(N2CCN(Cc3cccc(O)c3)CC2)c2nc(Cl)ccc21 [Example 351, 6-chloro-4-{4-[(3-hydroxyphenyl)methyl]piperazin-1-yl}-1-methyl-2-oxo-1,2-dihydro-1,5-naphthyridine-3-carbonitrile] | 360 nM | 1500 nM | 190000 nM
COc1cccc(CN2CCN(c3c(C#N)c(=O)n(C)c4ccc(C)nc34)CC2)c1O [Example 352, 4-{4-[(2-hydroxy-3-methoxyphenyl)methyl]piperazin-1-yl}-1,6-dimethyl-2-oxo-1,2-dihydro-1,5-naphthyridine-3-carbonitrile] | 700 nM | 1600 nM | > 81000 nM
COc1ccc(CN2CCN(c3c(C#N)c(=O)n(C)c4ccc(Cl)nc34)CC2)cc1O [Example 353, 6-chloro-4-{4-[(3-hydroxy-4-methoxyphenyl)methyl]piperazin-1-yl}-1-methyl-2-oxo-1,2-dihydro-1,5-naphthyridine-3-carbonitrile] | 65 nM | 1900 nM | > 240000 nM
Cn1c(=O)c(C#N)c(N2CCN(Cc3ccc(O)c(Cl)c3)CC2)c2nc(Cl)ccc21 [Example 354, 6-chloro-4-{4-[(3-chloro-4-hydroxyphenyl)methyl]piperazin-1-yl}-1-methyl-2-oxo-1,2-dihydro-1,5-naphthyridine-3-carbonitrile] | 110 nM | 2500 nM | > 240000 nM
Cn1c(=O)c(C#N)c(N2CCN(Cc3ccc(O)c(C(F)(F)F)c3)CC2)c2nc(Cl)ccc21 [Example 355, 6-chloro-4-(4-{[4-hydroxy-3-(trifluoromethyl)phenyl]methyl}piperazin-1-yl)-1-methyl-2-oxo-1,2-dihydro-1,5-naphthyridine-3-carbonitrile] | 7100 nM | 2800 nM | > 240000 nM
Cc1cc(CN2CCN(c3c(C#N)c(=O)n(C)c4ccc(Cl)nc34)CC2)ccc1O [Example 356, 6-chloro-4-{4-[(4-hydroxy-3-methylphenyl)methyl]piperazin-1-yl}-1-methyl-2-oxo-1,2-dihydro-1,5-naphthyridine-3-carbonitrile] | 300 nM | 3000 nM | > 240000 nM
Cn1c(=O)c(C#N)c(N2CCN(Cc3cccc4nc[nH]c34)CC2)c2nc(Cl)ccc21 [Example 359, 4-{4-[(1H-1,3-benzodiazol-7-yl)methyl]piperazin-1-yl}-6-chloro-1-methyl-2-oxo-1,2-dihydro-1,5-naphthyridine-3-carbonitrile] | 19000 nM | 8000 nM | > 240000 nM
Cn1c(=O)c(C#N)c(N2CCN(Cc3cccc4nc[nH]c34)CC2)c2nc(Br)ccc21 [Example 360] | 48000 nM | 9600 nM | > 240000 nM
